Results from patent publication US20240150301A1, “METHODS OF MODULATING ANDROGEN RECEPTOR CONDENSATES” (ETERN BIOPHARMA (SHANGHAI) CO., LTD., priority 2021, published 2024).

How the values were obtained:
Assay type in all cases: cell-based
AR V7 = molecular target: T1, AR V7 (Homo sapiens, UniProt P10275); experiment: ARE-luciferase reporter assay in 22Rv1 cells (endogenous AR-V7); set-up: 22Rv1(Cobioer) prostate cancer cell line, which expresses endogenous AR-V7; host or cells: 22Rv1; details: 22Rv1, hormone-starved, 24 h; read-out: 22Rv1 ARE-luc IC50
T1 sequence (P10275 1-644 isoform P10275-3): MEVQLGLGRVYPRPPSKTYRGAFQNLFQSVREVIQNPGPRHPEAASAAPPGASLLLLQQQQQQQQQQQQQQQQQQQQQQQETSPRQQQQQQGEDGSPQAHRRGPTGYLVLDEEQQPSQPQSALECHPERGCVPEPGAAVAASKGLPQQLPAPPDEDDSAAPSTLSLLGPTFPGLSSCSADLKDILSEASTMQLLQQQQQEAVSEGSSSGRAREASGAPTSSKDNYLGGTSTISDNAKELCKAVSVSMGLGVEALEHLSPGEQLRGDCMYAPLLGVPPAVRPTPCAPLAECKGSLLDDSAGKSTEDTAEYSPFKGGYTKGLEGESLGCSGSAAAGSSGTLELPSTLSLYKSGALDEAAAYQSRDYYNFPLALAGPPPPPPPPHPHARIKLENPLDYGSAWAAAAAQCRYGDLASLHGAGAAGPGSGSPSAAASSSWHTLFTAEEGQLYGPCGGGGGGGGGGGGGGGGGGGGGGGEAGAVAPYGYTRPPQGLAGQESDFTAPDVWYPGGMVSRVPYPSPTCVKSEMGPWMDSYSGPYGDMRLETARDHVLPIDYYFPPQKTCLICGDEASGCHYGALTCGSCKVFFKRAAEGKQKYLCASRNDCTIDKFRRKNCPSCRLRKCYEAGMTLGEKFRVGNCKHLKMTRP
Method: The ARE-luciferase reporter plasmid contains functional AREs (androgen response elements) to which AR binds in response to androgen to induce luciferase activity. LNCaP (Cobioer) cells were transiently transfected with the ARE-luciferase reporter in charcoal stripped FBS/phenol red-free RPMI medium prior to treatment for 24 hours. Then DMSO or test compounds with serial diluted concentrations were added one hour prior to the addition of DHT(1 nM). After 24 h of incubation with DHT, cells were lysed and luciferase activity was assayed using the ONE-Glo™ Luciferase Assay System (Promega) and measured using EnVision Multimode Plate Reader, according to manufacturer's instructions. Values were normalized to cell viability determined by CellTiter-Glo® Luminescent Cell Viability Assay Kit (Promega). […] GraphPad Prism graphing software was used to calculate IC50 values.
To evaluate the transcriptional activity of AR-V7, HEK293T(Cobioer) cells were transiently cotransfected with an expression vector for AR-V7 and the ARE-luciferase reporter in hormone-starved conditions. For 22Rv1(Cobioer) prostate cancer cell line, which expresses endogenous AR-V7, ARE-luciferase reporter was transiently transfected in hormone-starved conditions. 24 h after transfection, DMSO or test compounds with serial diluted concentrations were added for additional 24 h incubation. Reporter activity was detected and normalized by cell viability as described above. Treatments were normalized to DMSO control activity, and IC50 values were further determined via GraphPad Prism graphing software.

LNCaP cells = experiment: Cell proliferation assay (CellTiter-Glo), LNCaP; details: Homo sapiens, 96 h, 0.2 nM DHT, 4 days, read-out: LNCaP IC50 AR-positive (cell proliferation)
Method: (§1) To evaluate the effect of exemplary compounds on proliferation of AR/AR-V7-dependent prostate cancer cells, cell viability assay was performed in LNCaP (AR-positive), 22Rv1 (AR-positive; AR-V7 positive), VCaP (AR-positive; AR-V7 positive), and DU145 (AR-negative) cells, respectively.
(§2) LNCaP cells were seeded in charcoal stripped FBS/phenol red-free RPMI medium in 96-well plates for 24 h before pretreating for 1 h with test compounds prior to addition of 0.2 nM DHT for 4 days. 22Rv1 or VCaP cells were cultured in charcoal stripped FBS/phenol red-free RPMI medium for 24 h before addition of test compounds for 4 days. DU145 cells were seeded in complete medium for 24 h before addition of test compounds for 4 days. Cell proliferation was measured with CellTiter-Glo® Luminescent Cell Viability Assay (Promega). In LNCaP cells, DHT-dependent cell growth is calculated by measuring the difference between vehicle control (DMSO) cells treated with or without 0.2 nM DHT. The IC50 values were determined using the four parameter fit via GraphPad Prism graphing software.

DU145 cells = experiment: Cell proliferation assay (CellTiter-Glo), DU145; details: Homo sapiens, DU-145, 96 h; 4 days; read-out: DU145 IC50 AR-negative (cell proliferation)
Method: as §1, §2

IC50 (AR V7) [µM]	IC50 (LNCaP cells) [µM]	IC50 (DU145 cells) [µM]	Compound
8.6	0.86	> 20	CC(C)(c1ccc(OCc2ccnc(N=S3(=O)CCNCC3)n2)cc1)c1cc(Cl)c(OCCCl)c(C#N)c1 [Compound 6, 3-chloro-2-(2-chloroethoxy)-5-(2-(4-((2-((1-oxido-1λ^6-thiomorpholin-1-ylidene)amino)pyrimidin-4-yl)methoxy)phenyl)propan-2-yl)benzonitrile]
> 20	7.01	17.2	CC(C)(c1ccc(OCc2ccnc(NS(C)(=O)=O)n2)cc1)c1cc(Cl)c(OCCCl)c(C#N)c1 [Compound AA, N-(4-((4-(2-(3-chloro-4-(2-chloroethoxy)-5-cyanophenyl)propan-2-yl)phenoxy)methyl)pyrimidin-2-yl) methane sulfonamide, reference compound]
